We go through 19 compounds from patent US8232274B2, “Pyridazinone derivatives useful as glucan synthase inhibitors” (Albany Molecular Research, Inc., priority 2007, dated 2012).

Test [1] has as its target T1, glucan synthase (Candida albicans, UniProt O13428).
T1 construct: glucan synthase sources (2 μL permeabilized PM503 cells, or 3 μL membrane preparations from either PM503, BWP17, or ND158); endogenous in cells; host or cells: C. albicans strain BWP17, 100,000 g membrane fraction
Description: β(1,3) glucan synthase assay, C. albicans BWP17 membrane preparation (IC50). The format is biochemical. Particulars: in vitro fungal enzyme activity assay, read-out: IC50 (μg/mL) Candida albicans (converted). As to the method:
(§1) β(1,3) Glucan Synthase Assay:
(§2) 2. Preparation of Membrane Fraction of Yeast Cells
(§3) The protocol was modified from Douglas et al. (Journal of Bacteriology, 176, 5686-5696, 1994). For the preparation of S. cerevisiae and C. albicans membrane fractions, 1 liter of YPD supplemented with 0.02 mg/mL adenine and 0.08 mg/mL uracil was inoculated with 10 mL starter culture of PM503 (OD600=4) or the C. albicans strain BWP17 (OD600=12) in the same medium and grown at 30° C. until OD600 reached about 1. A. fumigatus (stain ND158) membranes were prepared by first preparing a spore suspension from agar slants by adding 6 mL of sterile saline, 0.1% Tween-20 solution to each slant, and resuspending by pipetting and scraping. The spore suspensions were used to inoculate two 200 mL flasks containing Sabouraud dextrose broth media. Cultures were incubated at 37° C., 250 rpm for ˜8 hrs. All cells, S. cerevisiae, C. albicans or A. fumigatus were harvested by centrifugation at 5,300 g at 4° C. for 40 minutes. After washing with 100 mL of breakage buffer (0.1 M KPi, pH 7.0, 1 mM EDTA, 1 mM DTT), the cell pellet was resuspended in 50 ml ice-cold breakage buffer. The mixture was transferred to a bead-beater chamber packed in ice (BioSpec Products, Bartlesville, Okla.). To each 50 mL sample was added 50 g of acid-washed glass beads ([…], Sigma). Cells were disrupted using 12×20 second pulses with 2 min-cooling intervals. Cell debris was removed by centrifugation at 3,000 g for 20 minutes at 4° C., and the supernatant was collected and centrifuged at 100,000 g for 1 hour at 4° C. to pellet the membrane fraction. The pellet was resuspended in 5 mL of ice-cold breakage buffer containing 25% glycerol, homogenized with a Dounce tissue homogenizer and stored at −80° C. in small aliquots.
(§4) 3. Glucan Synthase Assay and Compound Screening
The assay was performed according to Mo et at (Journal of Biological Chemistry, 269, 31267-31274, 1994) and Taft et al. (The Journal of Antibiotics, 47, 1001-1009, 1994), in a 96-well Optiplate (PerkinElmer). To each well was added 3 μL 10× compound stock (in 100% DMSO), or 3 μL of 30 μg/mL caspofungin in 100% DMSO (as positive control), or 3 μL 100% DMSO (as negative control), followed by the addition of appropriate amount of glucan synthase sources (2 μL permeabilized PM503 cells, or 3 μL membrane preparations from either PM503, BWP17, or ND158). The reaction was initiated by adding 25 μL reaction buffer (0.6 mM UDP-Glucose 0.6 nCi [U-^14C]DUP-Glucose (327 mCi/mmol, Amersham Bioscience), 20 μM GTP-γ-S, 25 mM NaF, 7.5 mg/mL BSA, 8% glycerol in 75 mM Tris-HCl, pH 7.5). The plate was incubated on a shaker for 1.5 hour at room temperature before being quenched with 250 μL 1% TCA (Trichloroacetic Acid). The quenched reaction was mixed by pipetting, and immediately transferred to a 96-well filter plate (Glass fiber B on 0.65 μm hydrophilic durapore membrane, Millipore) pre-wetted with wash buffer (5% TCA, 60 mM NaPPi). The glucan product was retained on the filter membrane by applying vacuum to the plate using a MultiScreen Resist Vacuum Manifold (Millipore). The filter plate was further washed 4 times with 200 μL wash buffer. The plate was dried at 50° C. for 30 minutes. 100 μL of Microscint-0 (PerkinElmer) was added to each well, and plate was counted in a TopCount NXT plate reader (PerkinElmer).
Dose-response curves were plotted from inhibition data generated. IC50 was determined by fitting the CPM versus the Concentration of the test compound plot with the following equation (4-parameter logistic model, ID Business Solutions XLfit 4.2).

Test [2] addresses T2, glucan synthase (Saccharomyces cerevisiae, UniProt P38631).
T2 construct: glucan synthase sources (2 μL permeabilized PM503 cells, or 3 μL membrane preparations from either PM503, BWP17, or ND158); endogenous in cells; host or cells: S. cerevisiae strain PM503, permeabilized cells or 100,000 g membrane fraction
Description: β(1,3) glucan synthase assay, S. cerevisiae PM503 permeabilized cells or membrane preparation (IC50). The format is biochemical. The method, then:
as §1
1. Preparation of Permeabilized Saccharomyces cerevisiae Cells.
Permeabilization of yeast cells was performed according to Crotti et al. (Analytical Biochemistry, 292, 8-16, 2001) with some modifications. A 10 ml-starter culture of the S. cerevisiae strain in YPD medium (1% yeast extract, 2% bacto-peptone, 2% dextrose) with OD600=3-4 was used to inoculate 1 liter of YPD. The culture was grown at 30° C. until […]. Cells were collected by centrifugation (5,300 g for 15 min at 4° C.) and resuspended in buffer (40 mM EDTA, 100 mM β-mercaptoethanol) at 1 g of cell pellet/3.5 ml buffer. The cell suspension was shaken for 30 min at 30° C., followed by centrifugation at 12,000 g for 10 min at 4° C. The cell pellet was washed with 5 ml 0.8 M sorbitol and resuspended in 6.8 ml of 2.9 mM citric acid, 11.3 mM dibasic sodium phosphate, 1 mM EDTA, 0.8 M sorbitol, with constant shaking at 30)C for 30 min. After centrifugation at 12,000 g for […] at 4° C., the pellet was resuspended in 31.3 ml 50 mM Tris-HCl, pH 7.0, and incubated on ice for 5 min. The mixture was then centrifuged at 12,000 g for 10 min at 4 AC, and the pellet was resuspended in 1 ml of 50 mM Tris-HCl and 33% glycerol, pH 7.5. The permeabilized cell preparation was stored at […] in aliquots.
as §2, §3, §4
The assay was performed according to Mo et at (Journal of Biological Chemistry, 269, 31267-31274, 1994) and Taft et al. (The Journal of Antibiotics, 47, 1001-1009, 1994), in a 96-well Optiplate (PerkinElmer). To each well was added 3 μL 10× compound stock (in 100% DMSO), or 3 μL of 30 μg/mL caspofungin in 100% DMSO (as positive control), or 3 μL 100% DMSO (as negative control), followed by the addition of appropriate amount of glucan synthase sources (2 μL permeabilized PM503 cells, or 3 μL membrane preparations from either PM503, BWP17, or ND158). The reaction was initiated by adding 25 μL reaction buffer (0.6 mM UDP-Glucose 0.6 nCi [U-^14C]DUP-Glucose (327 mCi/mmol, Amersham Bioscience), 20 μM GTP-γ-S, 25 mM NaF, 7.5 mg/mL BSA, 8% glycerol in 75 mM Tris-HCl, pH 7.5). […]

T1 sequence (O13428 1-1897): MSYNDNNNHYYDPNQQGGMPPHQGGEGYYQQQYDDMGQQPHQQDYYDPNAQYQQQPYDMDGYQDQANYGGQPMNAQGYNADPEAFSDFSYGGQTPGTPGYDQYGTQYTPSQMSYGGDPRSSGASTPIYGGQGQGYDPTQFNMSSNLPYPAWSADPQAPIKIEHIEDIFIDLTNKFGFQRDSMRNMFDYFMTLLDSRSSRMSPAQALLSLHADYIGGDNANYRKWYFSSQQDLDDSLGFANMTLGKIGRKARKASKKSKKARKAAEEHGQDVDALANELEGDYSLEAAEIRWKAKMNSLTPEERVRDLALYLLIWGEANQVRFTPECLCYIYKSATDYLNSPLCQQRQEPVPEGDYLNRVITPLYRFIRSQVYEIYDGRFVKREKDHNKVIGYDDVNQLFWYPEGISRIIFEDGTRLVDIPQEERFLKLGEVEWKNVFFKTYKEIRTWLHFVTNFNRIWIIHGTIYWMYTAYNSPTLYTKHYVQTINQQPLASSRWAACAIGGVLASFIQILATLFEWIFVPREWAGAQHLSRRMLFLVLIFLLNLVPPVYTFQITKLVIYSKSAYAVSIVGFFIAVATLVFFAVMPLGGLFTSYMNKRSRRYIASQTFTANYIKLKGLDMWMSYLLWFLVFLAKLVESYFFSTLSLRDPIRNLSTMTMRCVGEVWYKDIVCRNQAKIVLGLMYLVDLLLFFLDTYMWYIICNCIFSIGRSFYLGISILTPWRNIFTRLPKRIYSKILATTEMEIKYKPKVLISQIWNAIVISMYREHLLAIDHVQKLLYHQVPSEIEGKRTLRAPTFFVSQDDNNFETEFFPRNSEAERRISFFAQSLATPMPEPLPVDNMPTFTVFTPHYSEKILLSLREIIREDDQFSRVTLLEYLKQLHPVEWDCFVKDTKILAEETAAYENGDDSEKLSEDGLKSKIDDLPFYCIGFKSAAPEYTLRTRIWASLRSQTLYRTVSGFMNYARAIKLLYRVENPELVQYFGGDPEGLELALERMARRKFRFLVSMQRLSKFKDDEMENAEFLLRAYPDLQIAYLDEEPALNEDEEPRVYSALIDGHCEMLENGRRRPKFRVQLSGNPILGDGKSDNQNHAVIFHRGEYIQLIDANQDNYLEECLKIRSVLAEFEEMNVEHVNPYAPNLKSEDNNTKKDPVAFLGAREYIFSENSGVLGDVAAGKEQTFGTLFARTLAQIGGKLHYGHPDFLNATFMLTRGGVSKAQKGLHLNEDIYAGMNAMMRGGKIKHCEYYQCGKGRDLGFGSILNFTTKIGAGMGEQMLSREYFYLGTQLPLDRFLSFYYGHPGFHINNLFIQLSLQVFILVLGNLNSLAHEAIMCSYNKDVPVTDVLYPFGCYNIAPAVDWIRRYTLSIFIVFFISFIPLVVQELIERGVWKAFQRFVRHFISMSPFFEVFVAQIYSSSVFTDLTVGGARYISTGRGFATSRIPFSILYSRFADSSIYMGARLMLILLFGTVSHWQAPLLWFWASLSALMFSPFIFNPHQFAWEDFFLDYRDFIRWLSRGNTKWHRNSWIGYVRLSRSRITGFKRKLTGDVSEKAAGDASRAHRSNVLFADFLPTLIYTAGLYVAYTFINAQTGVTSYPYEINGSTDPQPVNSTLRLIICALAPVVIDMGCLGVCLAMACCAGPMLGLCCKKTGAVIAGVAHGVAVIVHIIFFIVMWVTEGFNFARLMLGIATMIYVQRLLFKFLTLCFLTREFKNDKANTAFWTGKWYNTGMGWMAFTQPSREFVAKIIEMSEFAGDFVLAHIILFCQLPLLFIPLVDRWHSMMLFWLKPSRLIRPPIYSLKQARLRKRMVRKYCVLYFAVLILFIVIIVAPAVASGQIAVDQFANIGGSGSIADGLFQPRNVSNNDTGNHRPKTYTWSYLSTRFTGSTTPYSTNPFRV
T1 sequence (O42825 1-195 partner limits assumed): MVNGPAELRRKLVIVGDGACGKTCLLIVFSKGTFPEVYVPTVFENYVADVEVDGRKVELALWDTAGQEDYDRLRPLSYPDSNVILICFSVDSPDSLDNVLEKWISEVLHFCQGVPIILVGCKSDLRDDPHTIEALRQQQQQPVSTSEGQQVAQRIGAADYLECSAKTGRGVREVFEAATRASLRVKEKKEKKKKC
T2 sequence (P06780 1-206): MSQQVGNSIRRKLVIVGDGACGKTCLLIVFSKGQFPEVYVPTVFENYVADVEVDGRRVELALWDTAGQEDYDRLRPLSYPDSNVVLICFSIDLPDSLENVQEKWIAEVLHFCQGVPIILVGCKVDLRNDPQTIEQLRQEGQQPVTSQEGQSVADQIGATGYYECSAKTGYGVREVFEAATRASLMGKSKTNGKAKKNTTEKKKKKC
T2 sequence (P38631 whole entry): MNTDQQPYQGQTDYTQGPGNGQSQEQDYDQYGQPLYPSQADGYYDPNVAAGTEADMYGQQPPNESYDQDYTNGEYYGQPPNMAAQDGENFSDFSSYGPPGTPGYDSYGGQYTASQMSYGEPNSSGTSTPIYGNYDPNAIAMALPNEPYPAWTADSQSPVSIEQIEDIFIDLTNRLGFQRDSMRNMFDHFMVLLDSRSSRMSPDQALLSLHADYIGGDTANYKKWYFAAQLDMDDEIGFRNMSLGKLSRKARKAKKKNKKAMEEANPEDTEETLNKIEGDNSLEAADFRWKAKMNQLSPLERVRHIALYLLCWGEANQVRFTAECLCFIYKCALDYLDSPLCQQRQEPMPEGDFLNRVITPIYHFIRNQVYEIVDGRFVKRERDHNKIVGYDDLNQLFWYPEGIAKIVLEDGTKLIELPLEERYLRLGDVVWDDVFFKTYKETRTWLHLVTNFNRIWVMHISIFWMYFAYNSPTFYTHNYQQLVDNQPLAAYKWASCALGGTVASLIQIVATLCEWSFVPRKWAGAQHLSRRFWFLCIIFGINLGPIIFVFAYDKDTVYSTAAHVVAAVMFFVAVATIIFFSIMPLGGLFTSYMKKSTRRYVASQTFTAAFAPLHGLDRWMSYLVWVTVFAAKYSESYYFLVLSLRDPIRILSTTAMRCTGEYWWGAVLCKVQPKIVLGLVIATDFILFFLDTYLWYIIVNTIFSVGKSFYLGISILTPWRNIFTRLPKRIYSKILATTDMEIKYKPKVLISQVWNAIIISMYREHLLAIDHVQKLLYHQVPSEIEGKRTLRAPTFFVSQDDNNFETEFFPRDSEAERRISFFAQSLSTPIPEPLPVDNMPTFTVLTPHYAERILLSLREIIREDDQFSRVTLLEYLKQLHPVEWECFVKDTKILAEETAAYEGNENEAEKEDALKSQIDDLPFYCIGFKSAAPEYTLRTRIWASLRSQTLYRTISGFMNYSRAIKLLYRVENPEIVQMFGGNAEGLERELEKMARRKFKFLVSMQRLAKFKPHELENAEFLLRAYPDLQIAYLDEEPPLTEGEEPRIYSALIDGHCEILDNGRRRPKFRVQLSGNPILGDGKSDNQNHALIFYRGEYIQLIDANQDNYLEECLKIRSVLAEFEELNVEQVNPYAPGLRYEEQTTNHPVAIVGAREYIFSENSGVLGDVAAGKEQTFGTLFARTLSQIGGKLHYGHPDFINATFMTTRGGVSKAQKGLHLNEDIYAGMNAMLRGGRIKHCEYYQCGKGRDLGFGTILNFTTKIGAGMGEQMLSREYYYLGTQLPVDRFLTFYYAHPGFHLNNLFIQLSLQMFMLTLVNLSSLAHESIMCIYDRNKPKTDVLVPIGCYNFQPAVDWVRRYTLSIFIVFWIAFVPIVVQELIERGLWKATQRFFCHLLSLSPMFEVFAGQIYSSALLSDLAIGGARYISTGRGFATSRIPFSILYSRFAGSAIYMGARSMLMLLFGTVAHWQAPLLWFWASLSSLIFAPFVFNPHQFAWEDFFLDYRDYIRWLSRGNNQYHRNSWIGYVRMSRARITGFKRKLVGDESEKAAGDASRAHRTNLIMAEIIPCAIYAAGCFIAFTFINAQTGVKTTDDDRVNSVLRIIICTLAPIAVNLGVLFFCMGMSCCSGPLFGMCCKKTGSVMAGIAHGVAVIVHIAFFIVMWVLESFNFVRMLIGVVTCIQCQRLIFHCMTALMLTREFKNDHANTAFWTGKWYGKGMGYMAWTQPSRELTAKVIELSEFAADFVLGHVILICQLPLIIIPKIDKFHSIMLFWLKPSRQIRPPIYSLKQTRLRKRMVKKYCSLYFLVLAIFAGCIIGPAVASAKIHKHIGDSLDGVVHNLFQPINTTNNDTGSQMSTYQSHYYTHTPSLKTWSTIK

With `CC1(COc2c(N3CCN(S(=O)(=O)Cc4cc(N)ccc4F)CC3)cnn(-c3cccc(Cl)c3)c2=O)CC1` [1904Z], the IC50 on glucan synthase [1] was 142 nM; against glucan synthase [2], 107 nM.

On to `COCCNc1cccc(CS(=O)(=O)N2CCN(c3cnn(-c4cccc(Cl)c4)c(=O)c3OCC3(C)CC3)CC2)c1` [1951Z], for which the IC50 on glucan synthase [1] is 83 nM; against glucan synthase [2], 99.6 nM.

In the case of `Cc1nc2ccc(CS(=O)(=O)N3CCN(c4cnn(-c5cc(F)cc(F)c5)c(=O)c4OCC4(C)CC4)CC3)cc2o1` [1898Z], the IC50 on glucan synthase [1] is 102 nM; against glucan synthase [2], 85.4 nM.

As for `O=c1c2c(cnn1-c1cc(F)cc(F)c1)N1CCN(CC1)S(=O)(=O)/C=C/CCCCCCCCO2` [2022Z], the IC50 on glucan synthase [1] was 157 nM; against glucan synthase [2], 78.6 nM.

For the compound `CC1(COc2c(N3CCN(S(=O)(=O)Cc4ccccc4)CC3)cnn(-c3cccc(Cl)c3)c2=O)CC1` [1035Z], the IC50 on glucan synthase [1] is 56.7 nM; on glucan synthase [2] it was 75.6 nM.

`CC1(COc2c(N3CCN(S(=O)(=O)Cc4ccc(I)cc4)CC3)cnn(-c3cccc(Cl)c3)c2=O)CC1` [312*, 2-(3-chlorophenyl)-5-(4-(4-iodobenzylsulfonyl)piperazin-1-yl)-4-((1-methylcyclopropyl)methoxy)pyridazin-3(2H)-one]: the results for the IC50 on glucan synthase [1] and at glucan synthase [2] were 107 nM and 91.6 nM, respectively.

Take `CS(=O)(=O)N1CCN(c2cnn(-c3cccc(Cl)c3)c(=O)c2OC2CCc3ccccc3C2)CC1` (centres unmarked) [974Z]: the values for the IC50 at glucan synthase [1] and at glucan synthase [2] were 641 nM and 252 nM, respectively.

On to `Cc1ccc(Cc2c(N3CCN(S(=O)(=O)C(C)C)CC3)cnn(-c3cc(F)cc(F)c3)c2=O)cc1` [119Z], for which the IC50 was 1610 nM on glucan synthase [1] and 125 nM against glucan synthase [2].

For the compound `CC1(COc2c(N3CCN(S(=O)(=O)Cc4ccccc4)CC3)cnn(-c3cc(F)cc(F)c3)c2=O)CC1` [1529Z-191], the results for the IC50 at glucan synthase [1] and at glucan synthase [2] were 37.7 nM and 207 nM, respectively.

Regarding `CCOCCOc1c(N2CCN(C(=O)CC)CC2)cnn(-c2cccc(C)c2)c1=O` [227Z], the IC50 at glucan synthase [1] and against glucan synthase [2] was 367000 nM each time.

As for `O=c1c(OCc2cccc(F)c2)c(N2CCN(S(=O)(=O)Cc3ccccc3)CC2)cnn1-c1cc(F)cc(F)c1` [1529Z-150], the figures for the IC50 at glucan synthase [1] and against glucan synthase [2] were 175 nM and 70.1 nM, respectively.

`O=c1c(N2CCOCC2)c(N2CCN(S(=O)(=O)Cc3ccccc3)CC2)cnn1Cc1c(F)cccc1Cl` [30Z]: the IC50 is 16000 nM on glucan synthase [1] and 712 nM against glucan synthase [2].

Consider `O=C(NCc1ccccc1)N1CCN(c2cnn(-c3cccc(Cl)c3)c(=O)c2OC2CCCC2)CC1` [204Z], for which the IC50 at glucan synthase [1] was 68900 nM; against glucan synthase [2], 203000 nM.

For the compound `CCCCCCSc1c(N2CCN(S(C)(=O)=O)CC2)cnn(-c2cc(F)cc(F)c2)c1=O` [11Z], the results for the IC50 on glucan synthase [1] and at glucan synthase [2] were 12700 nM and 2470 nM, respectively.

As for `Nc1ccc(CS(=O)(=O)N2CCN(c3cnn(-c4cc(F)cc(F)c4)c(=O)c3OC3CCC(F)C3)CC2)cc1` (centres unmarked) [1529Z-6], the IC50 at glucan synthase [1] is 106 nM; against glucan synthase [2] it was 35.5 nM.

Take `CC1(COc2c(N3CCN(S(=O)(=O)Cc4ccc5ncoc5c4)CC3)cnn(-c3cc(F)cc(F)c3)c2=O)CC1` [1891Z]: the IC50 at glucan synthase [1] is 122 nM; against glucan synthase [2] it was 87.5 nM.

In the case of `CC1(COc2c(N3CCN(S(=O)(=O)NCc4ccc(Cl)nc4)CC3)cnn(-c3cccc(Cl)c3)c2=O)CC1` [1675Z], the IC50 at glucan synthase [1] was 345 nM; against glucan synthase [2], 138 nM.

Take `COc1cccc(CS(=O)(=O)N2CCN(c3cnn(-c4cccc(Cl)c4)c(=O)c3OCC3(C)CC3)CC2)c1N` [Compound 1574ZI]: the IC50 on glucan synthase [1] and against glucan synthase [2] was 87.1 nM each time.

For `Nc1ccccc1CS(=O)(=O)N1CCN(c2cnn(-c3cc(F)cc(F)c3)c(=O)c2OC2CCCC2)CC1` [738Z], the IC50 at glucan synthase [1] is 128 nM; at glucan synthase [2] it was 73.3 nM.
